Source: ChEMBL document CHEMBL3885881, “DrugMatrix”

Species on record: Rattus norvegicus
Assay: DrugMatrix - Regimen: Daily Repeat
Assay type: toxicity, organism-based, Sprague-Dawley
Design: regimen Daily Repeat, gender Male, age 6-8 weeks
Settings: in vivo, po, route oral GAVAGE, vehicle 100 % WATER; for ABSOLUTE BASOPHIL / ABSOLUTE EOSINOPHIL / ABSOLUTE LYMPHOCYTE / ABSOLUTE MONOCYTE / ABSOLUTE SEGMENTED NEUTROPHIL / BASOPHIL / EOSINOPHIL / ERYTHROCYTE COUNT / HEMATOCRIT / HEMOGLOBIN / LEUKOCYTE COUNT / LYMPHOCYTE / MEAN CORPUSCULAR HEMOGLOBIN / MEAN CORPUSCULAR HEMOGLOBIN CONCENTRATION / MEAN CORPUSCULAR VOLUME / MONOCYTE / NEUTROPHIL / NUCLEATED RED BLOOD CELLS / PLATELET COUNT: tissue Blood; for ALANINE AMINOTRANSFERASE / ALBUMIN / ALKALINE PHOSPHATASE / ASPARTATE AMINOTRANSFERASE / BLOOD UREA NITROGEN / CARBON DIOXIDE / CHLORIDE / CHOLESTEROL / CREATINE PHOSPHOKINASE / CREATININE / GLUCOSE / LACTATE DEHYDROGENASE / LIPASE / PHOSPHORUS / POTASSIUM / SODIUM / TOTAL BILIRUBIN / TOTAL PROTEIN / URIC ACID: tissue Plasma
[1] = 0 mg/kg, 72 h, dose level Control, time 3 day
[2] = 0 mg/kg, 120 h, dose level Control, time 5 day
[3] = 20 mg/kg, 72 h, dose level Low, time 3 day

CCCC(C)C1(CC)C(=O)NC(=O)NC1=O (centres undefined) [PENTOBARBITAL]
ABSOLUTE BASOPHIL [1]: 0 CELLS/uL
ABSOLUTE EOSINOPHIL [1]: 32.5 CELLS/uL
ABSOLUTE LYMPHOCYTE [1]: 9305.83 CELLS/uL
ABSOLUTE MONOCYTE [1]: 43.83 CELLS/uL
ABSOLUTE SEGMENTED NEUTROPHIL [1]: 817.83 CELLS/uL
BASOPHIL [1]: 0%
EOSINOPHIL [1]: 0.33%
ERYTHROCYTE COUNT [1]: 5.38 x10E6/uL
HEMATOCRIT [1]: 33.63%
HEMOGLOBIN [1]: 13.17 G/DL
LEUKOCYTE COUNT [1]: 10.2 x10E3/uL
LYMPHOCYTE [1]: 91.17%
MEAN CORPUSCULAR HEMOGLOBIN [1]: 24.5 pg
MEAN CORPUSCULAR HEMOGLOBIN CONCENTRATION [1]: 39.13 G/DL
MEAN CORPUSCULAR VOLUME [1]: 62.53 fL
MONOCYTE [1]: 0.5%
NEUTROPHIL [1]: 8%
NUCLEATED RED BLOOD CELLS [1]: 0.17 /100WBC
PLATELET COUNT [1]: 858 x10E3/uL
ALANINE AMINOTRANSFERASE [1]: 55.67 u/L
ALBUMIN [1]: 4.07 G/DL
ALKALINE PHOSPHATASE [1]: 337 u/L
ASPARTATE AMINOTRANSFERASE [1]: 84 u/L
BLOOD UREA NITROGEN [1]: 13.17 mg/dL
CARBON DIOXIDE [1]: 34.17 mmol/L
CHLORIDE [1]: 99.33 MEQ/L
CHOLESTEROL [1]: 78.83 mg/dL
CREATINE PHOSPHOKINASE [1]: 576.83 u/L
CREATININE [1]: 0.17 mg/dL
GLUCOSE [1]: 152.67 mg/dL
LACTATE DEHYDROGENASE [1]: 147.83 u/L
LIPASE [1]: 9.5 u/L
PHOSPHORUS [1]: 10.78 mg/dL
POTASSIUM [1]: 6.34 MEQ/L
SODIUM [1]: 144.12 MEQ/L
TOTAL BILIRUBIN [1]: 0.18 mg/dL
TOTAL PROTEIN [1]: 6.08 G/DL
URIC ACID [1]: 0.65 mg/dL
ABSOLUTE BASOPHIL [2]: 0 CELLS/uL
ABSOLUTE EOSINOPHIL [2]: 31.17 CELLS/uL
ABSOLUTE LYMPHOCYTE [2]: 7918.33 CELLS/uL
ABSOLUTE MONOCYTE [2]: 58.33 CELLS/uL
ABSOLUTE SEGMENTED NEUTROPHIL [2]: 725.5 CELLS/uL
BASOPHIL [2]: 0%
EOSINOPHIL [2]: 0.33%
ERYTHROCYTE COUNT [2]: 5.32 x10E6/uL
HEMATOCRIT [2]: 33.53%
HEMOGLOBIN [2]: 13.17 G/DL
LEUKOCYTE COUNT [2]: 8.73 x10E3/uL
LYMPHOCYTE [2]: 90.33%
MEAN CORPUSCULAR HEMOGLOBIN [2]: 24.82 pg
MEAN CORPUSCULAR HEMOGLOBIN CONCENTRATION [2]: 39.33 G/DL
MEAN CORPUSCULAR VOLUME [2]: 63.12 fL
MONOCYTE [2]: 0.67%
NEUTROPHIL [2]: 8.67%
NUCLEATED RED BLOOD CELLS [2]: 0 /100WBC
PLATELET COUNT [2]: 1144.83 x10E3/uL
ALANINE AMINOTRANSFERASE [2]: 60.5 u/L
ALBUMIN [2]: 3.97 G/DL
ALKALINE PHOSPHATASE [2]: 343.17 u/L
ASPARTATE AMINOTRANSFERASE [2]: 80.83 u/L
BLOOD UREA NITROGEN [2]: 15 mg/dL
CARBON DIOXIDE [2]: 31 mmol/L
CHLORIDE [2]: 99.75 MEQ/L
CHOLESTEROL [2]: 71.5 mg/dL
CREATINE PHOSPHOKINASE [2]: 237.17 u/L
CREATININE [2]: 0.17 mg/dL
GLUCOSE [2]: 137 mg/dL
LACTATE DEHYDROGENASE [2]: 146.17 u/L
LIPASE [2]: 11.5 u/L
PHOSPHORUS [2]: 10.13 mg/dL
POTASSIUM [2]: 6 MEQ/L
SODIUM [2]: 145 MEQ/L
TOTAL BILIRUBIN [2]: 0.13 mg/dL
TOTAL PROTEIN [2]: 5.82 G/DL
URIC ACID [2]: 0.62 mg/dL
ABSOLUTE BASOPHIL [3]: 0 CELLS/uL
ABSOLUTE EOSINOPHIL [3]: 0 CELLS/uL
ABSOLUTE LYMPHOCYTE [3]: 9302.33 CELLS/uL
ABSOLUTE MONOCYTE [3]: 108 CELLS/uL
ABSOLUTE SEGMENTED NEUTROPHIL [3]: 989.67 CELLS/uL
BASOPHIL [3]: 0%
EOSINOPHIL [3]: 0%
ERYTHROCYTE COUNT [3]: 5.3 x10E6/uL
HEMATOCRIT [3]: 32.83%
HEMOGLOBIN [3]: 12.6 G/DL
LEUKOCYTE COUNT [3]: 10.4 x10E3/uL
LYMPHOCYTE [3]: 88.33%
MEAN CORPUSCULAR HEMOGLOBIN [3]: 23.77 pg
MEAN CORPUSCULAR HEMOGLOBIN CONCENTRATION [3]: 38.37 G/DL
MEAN CORPUSCULAR VOLUME [3]: 61.97 fL
MONOCYTE [3]: 1.33%
NEUTROPHIL [3]: 10.33%
NUCLEATED RED BLOOD CELLS [3]: 0 /100WBC
PLATELET COUNT [3]: 1066.67 x10E3/uL
ALANINE AMINOTRANSFERASE [3]: 57.67 u/L
ALBUMIN [3]: 3.9 G/DL
ALKALINE PHOSPHATASE [3]: 334.33 u/L
ASPARTATE AMINOTRANSFERASE [3]: 90.67 u/L
BLOOD UREA NITROGEN [3]: 13.67 mg/dL
CARBON DIOXIDE [3]: 35.33 mmol/L
CHLORIDE [3]: 100 MEQ/L
CHOLESTEROL [3]: 80.67 mg/dL
CREATINE PHOSPHOKINASE [3]: 384.67 u/L
CREATININE [3]: 0.14 mg/dL
GLUCOSE [3]: 140 mg/dL
LACTATE DEHYDROGENASE [3]: 137 u/L
LIPASE [3]: 9 u/L
PHOSPHORUS [3]: 11.23 mg/dL
POTASSIUM [3]: 5.89 MEQ/L
SODIUM [3]: 147.3 MEQ/L
TOTAL BILIRUBIN [3]: 0.13 mg/dL
TOTAL PROTEIN [3]: 5.67 G/DL
URIC ACID [3]: 0.7 mg/dL
